Source: patent US11160826B1, “Cholesterol lowering drugs for the treatment of hepatic encephalopathy” (United States Government as represented by the Department …, priority 2017, dated 2021)
Entries after “also recorded” stand apart in the source; their conditions may differ.

Tests used:
cholesterol = test: Measurement of brain cholesterol (total/free kit, Nile Red, Filipin III staining); format: in vivo, C57Bl/6 mice
Procedure: (§1) Acute liver failure and HE was induced using the hepatotoxin azoxymethane (AOM) as previously described (McMillian, M. et al. (2016) Am. J. Pathol. 186(2): 312-23; McMillin, M. et al. Front Cell Neurosci. (2017) 11: 191; McMillin, M. et al. (2014) Journal of Hepatology 6(1): 1260-6; McMillin, M. et al. (2016) J. Neuroinflammation 13(1): 198). Briefly, C57Bl/6 or Cyp7A1−/− mice were injected with AOM (100 mg/kg ip) and placed on heating pads set to 37° C. to ensure normothermia. To reduce serum and cortical bile acid levels, C57Bl/6 mice were fed a diet supplemented with 2% cholestyramine (Dyets Inc.; Bethelhem, Pa.), or the control diet AIN-93G, for 3 days prior to the injection of AOM. […] This same approach was used to infuse 2-hydroxypropyl-β-cyclodextrin (2-HβC; 6 mg/kg/day, MilliporeSigma) to inhibit cholesterol accumulation. The infusion cannulas were implanted using the co-ordinates AP −0.34, ML −1.0, DV −2.0. This surgery was performed 3 days prior to the injection of AOM to allow the mice to recover prior to the onset of acute liver failure to minimize mortality.
Total, free and esterified cholesterol was assessed in brain homogenates using a BioVision Total Cholesterol and Cholesteryl Ester Assay Kit following the instructions from the vendor. The subcellular location of cholesterol was assessed using Nile Red staining (for intracellular cholesterol (Pol, A. et al. (2001) J. Cell Biol. 152(5): 1057-70)) and Filipin III staining (for membrane bound cholesterol (Vanier and Latour (2015) Methods Cell Biol. 126: 357-75)). Briefly, mice were transcardially perfused with ice-cold phosphate buffered saline (PBS), followed by 4% paraformaldehyde (PFA) in PBS. Whole brains were rapidly removed and post-fixed in PFA overnight at 4° C. Brains were cryoprotected in 30% sucrose (in PBS) and embedded in OCT compound. Thirty micrometer sections were cut through the frontal cortex region; sections were rinsed in PBS and further fixed in 4% PFA for 10 minutes at room temperature. Free-floating sections were incubated with Filipin III (0.5 μg/mL in 10% bovine serum albumin/PBS) for 2 hours at room temperature, or with Nile Red (10 μg/mL in PBS) for 30 minutes at room temperature. Sections were washed in PBS, mounted onto microscope slides and imaged using a Bio-Rad Zoe™ Fluorescent Cell Imager (Hercules, Calif.). Field images were quantified for percent-positive area of Nile Red or Filipin III staining using ImageJ software (National Institutes of Health, Bethesda, Md.).

[1] = system: models of Niemann-Pick Type C disease; conditions: Davidson et al. 2009; cited from earlier work
AOM-induced liver damage = test: Assessment of liver damage and function (H&E, plasma ALT, AST); format: in vivo, C57Bl/6 mice; conditions: 20 hour post-AOM injection; central (ICV) infusion
Procedure: as §1, with “This surgery was performed 3 days prior to the injection of AOM to allow the mice to recover prior to the onset of acute liver failure to minimize mortality.” left out
Liver damage was assessed by H&E staining according to previously published protocols (McMillin, M. et al. (2017) Front Cell Neurosci. 11: 191). […]
Liver function was assessed by measuring plasma alanine aminotransferase (ALT) and aspartate aminotransferase (AST) using the IDEXX Catalyst One machine from IDEXX Laboratories, Inc (Westbrook, […].).

[2] = system: AOM-induced acute liver failure; test: Neurological score and time to coma in the AOM mouse model of acute liver failure / hepatic encephalopathy; format: in vivo, C57Bl/6 mice; conditions: ICV infusion started 3 days prior to AOM; for neurological decline (neurological score): AOM-treated mice (100 mg/kg ip), 100 mg/kg; for time taken to reach hepatic coma: AOM-treated mice
Procedure: as §1
Starting at 12 hr after injection, mice were monitored at least every 2 hours for body temperature, weight and neurological score as previously described (McMillin, M. et al. Front Cell Neurosci. (2017) 11: 191; McMillin, M. et al. (2016) J. Neuroinflammation 13(1): 198). The neurological score was assessed by an investigator blind to the treatment groups and is a summation of the scores given for the following parameters: pinna reflex, corneal reflex, tail flexion, escape response, righting reflex and gait. Each parameter was assigned a score between 2 (normal) and 0 (absence of reflexes and presence of severe ataxia), and summed to give a neurological score out of 12. At approximately 16 hours after AOM injection, the gait of these experimental mice was further examined using ventral plane imaging technology (DigiGait, Mouse Specifics Inc, Framingham, Mass., USA) which images the underside of animals walking atop a motorized, transparent treadmill belt thereby generating digital paw prints. These paw prints were analyzed using DigiGait Analysis and Imager software (Mouse Specifics Inc, Framingham, Mass., USA) and measures of neuromuscular function were quantified, including the paw angle in fore- and hind limbs (to measure the degree of external rotation), gait symmetry (ratio of forelimb stepping frequency to hindlimb stepping frequency) and the ataxia coefficient for fore and hind limbs (calculated by [maximum stride length−minimum stride length]/average stride length). […]

[3] = system: AOM-induced acute liver failure; test: DigiGait ventral plane gait analysis of AOM-treated mice; format: in vivo, C57Bl/6 mice; conditions: approximately 16 hours after AOM injection
Procedure: as §1
Starting at 12 hr after injection, mice were monitored at least every 2 hours for body temperature, weight and neurological score as previously described (McMillin, M. et al. Front Cell Neurosci. (2017) 11: 191; McMillin, M. et al. (2016) J. Neuroinflammation 13(1): 198). The neurological score was assessed by an investigator blind to the treatment groups and is a summation of the scores given for the following parameters: pinna reflex, corneal reflex, tail flexion, escape response, righting reflex and gait. […] These paw prints were analyzed using DigiGait Analysis and Imager software (Mouse Specifics Inc, Framingham, Mass., USA) and measures of neuromuscular function were quantified, including the paw angle in fore- and hind limbs (to measure the degree of external rotation), gait symmetry (ratio of forelimb stepping frequency to hindlimb stepping frequency) and the ataxia coefficient for fore and hind limbs (calculated by [maximum stride length−minimum stride length]/average stride length).

[4] = system: AOM-induced acute liver failure; conditions: mouse model of acute liver failure, McMillin et al. 2016; cited from earlier work
Cyp46A1 = test: Expression of Cyp46A1 in primary cortical neuronal culture; format: cell-based, mouse; conditions: 10 μM with 10 μM DCA, 24 hr
Description: Primary cortical neurons were isolated and cultured using methodology previously described (McMillin, M. et al. (2014) Journal of hepatology 61(6): 1260-6). Primary neurons were isolated from P1 mouse pups. Mice were decapitated and whole brains were removed. The cortex was isolated and meninges and dura were removed. Cortical tissue was mechanically disrupted and filtered through a 100 μm filter. Neurons were pelleted by centrifugation at 1400 g. Neurons were suspended in media and plated on 12-well plates with 750,000 cells per well. After 24 hours, cells were washed and media was replaced and supplemented with 2% B27 growth supplement. […] At this point, cells were lysed and used for immunoblot or RTPCR analyses.
RNA was extracted from tissue or primary neurons using an RNeasy Mini Kit (Qiagen, Germantown, Md.) according to the manufacturer's instructions. Synthesis of cDNA was accomplished using a Bio-Rad iScript™ cDNA Synthesis Kit. […]
Specific antibodies against Cyp46A1 and β-actin were used. […] Data are expressed as fold change in fluorescent band intensity of target antibody divided by β-actin or GAPDH, which are used as loading controls. […] Band intensity quantifications were performed using ImageJ software.

[5] = AOM-treated mice, coma time point, pretreatment from 3 days prior to AOM
[6] = listed as 2-hydroxypropyl-cyclodextrin

2-hydroxypropyl-β-cyclodextrin [2-HβC]
cortex cholesterol accumulation (cholesterol; AOM-treated mice, FIG. 17 legend): reduced
AOM-induced increase in Filipin III staining (membrane-bound cholesterol) in the cortex (cholesterol; [5]): attenuated the AOM-induced increase
AOM-induced increase in Nile Red staining (intracellular cholesterol) in the cortex (cholesterol; [5]): attenuated the AOM-induced increase
AOM-induced increase in free cholesterol content in the cortex (cholesterol; [5]): did prevent the AOM-induced buildup
AOM-induced increase in total cholesterol content in the cortex (cholesterol; [5]): did prevent the AOM-induced buildup
basal levels of cholesterol in the cortex (cholesterol; vehicle-treated mice, infusion into the brain): did not decrease
excessive cholesterol buildup in the brain [1]: prevent excessive cholesterol buildup in the brain
AOM-induced liver damage (H&E staining, ALT, AST) (AOM-induced liver damage): does not have any hepatoprotective effects; also recorded: does not influence liver function
neurological decline (neurological score) [2]: significantly delayed the neurological decline; also recorded: reduces neurological decline
neurological decline (neurological score) [2, 6]: dramatically delayed the onset of neurological complications
time taken to reach hepatic coma [2]: increased the time taken to reach hepatic coma
time taken to reach hepatic coma [2, 6]: increased the time it took the mice to reach hepatic coma
ataxia co-efficient of fore and hind limbs [3]: returned the ataxia co-efficient back to control levels
gait symmetry (ratio of forelimb to hind limb stepping frequency) [3]: returned the gait symmetry to control levels
paw angle of fore and hind limbs (degree of external rotation) [3]: reduced the paw angle of AOM-treated mice to values similar to control

C[C@H](CCC(=O)O)[C@H]1CC[C@H]2[C@@H]3[C@H](O)C[C@@H]4C[C@H](O)CC[C@]4(C)[C@H]3C[C@H](O)[C@]12C [cholic acid]
neurological decline associated with acute liver failure (previous studies) [4]: worsened the neurological decline

C/C=C1\C(=O)C[C@H]2[C@@H]3CCC4=CC(=O)CC[C@]4(C)[C@H]3CC[C@]12C [guggulsterone, Guggulsterone]
DCA-induced decrease of Cyp46A1 expression in primary neurons (Cyp46A1): could be prevented by pre-treatment
